The source of these data is patent US8383888B1, “Plants and plant products useful for biofuel manufacture and feedstock, and methods of producing same” (University of Kentucky Research Foundation, priority 2008, dated 2013).

The subject of assay [1] is plants. To be noted: previous studies; cited from earlier work.
Assay [2] has as its system Arabidopsis ixr mutants. To be noted: cited from earlier work.
Assay [3] relates to Arabidopsis thaliana. The assay is described as follows: Growth of plants on plates containing isoxaben. It is filed as in vivo. To be noted: 2 nM isoxaben in plates. Here is the method: Studies with a plant (Arabidopsis thaliana) expressing a CESA-1 with a A903V mutation (“qxr” or “ags”) have shown significant reorganization of the mutant cell wall. Feedback between the gene mutation and cell wall structure was determined by FTIR analysis of the polysaccharide fingerprint region. The following conclusions were ascertained; firstly, the qxr mutant has aberrant root hair formation, which can be observed using light microscopy and have been described for cell wall gene deletion alleles. The highly elongated cell shape of root hairs has been used as model to define molecular players in cell elongation and a plausible explanation for the altered root hair phenotype is consistent with a defect in cell wall structure. […] Next, the inventors explored whether treating qxr mutants with the cellulose inhibitor isoxaben at minute doses induced a synergistic effect.

For the compound `CCC(C)(CC)c1cc(NC(=O)c2c(OC)cccc2OC)on1` [isoxaben, N-(3-[1-ethyl-1-methylpropyl]-5-isoxazolyl)-2,6,dimethoxybenzamide], in assay [1], the lethal dose was 5 nM. In addition, the “resistance of mutants to the herbicide” value in assay [2] (ixr1-1 and ixr1-2 mutations) is “high level of resistance”. The “drug tolerance of ixr1-1 relative to wild type” value in assay [2] (ixr1-1 homozygotes) was “approximately 300 times”. Moreover, the “resistance of mutants to the cellulose synthesis inhibitor” value in assay [2] (ixr1-2 and ixr2-1, forward chemical genetics screen) is “conferring resistance”. The “effect on qxr mutant plants” value in assay [3] (qxr (CESA-1 A903V)) was “dramatically swollen organs”. Besides, the “effect on wild type plants (swollen organs)” value in assay [3] (wild type) is reported as “did not”.
